Reference: PMC3184957, “Improving a Natural CaMKII Inhibitor by Random and Rational Design” (PLoS ONE, 2011)
“Also recorded” adds a separate entry of the source. Like-named read-outs stand apart in the source and are kept apart here. Ends that are not written are not given here.

What was measured:
CaMKIIα = molecular target: T1, CaMKIIα (Rattus norvegicus, UniProt P11275); assay: CaMKII activity assay, phosphorylation of syntide 2; type: biochemical; conditions: for CaMKII activity remaining at 5 nM peptide: 5 nM peptide (Figs. S6, 7B); for effect of rational mutation in CN19a2v / CN19o on CaMKII inhibition (Fig. 6): compared with CN19a2v or CN19o, Fig. 6C CaMKII 0.5 nM; for fold greater potency of CaMKII inhibition compared to CN19: ratio of IC50 values; for fold reduction of potency of CaMKII inhibition compared to CN19 (Ala scan): Ala substitution in CN19, Fig. 2; for effect of individual mutation of CN19 on potency of CaMKII inhibition: compared with CN19, some substitutions tested in CN19a2 or a3
T1 construct: made in house; host or cells: baculovirus/Sf9 (CaMKII); bacteria (CaM)
Source text: CaM and CaMKII was purified after bacterial or baculovirus/Sf9 cell expression as described, [47]. Other kinases were purchased (PKA and PKC from PhosphoSolutions; others from SignalChem). […] All CN peptides were N-terminally acetylated and C-terminally amidated, except for the peptides used for the initial Ala scan. Substrate peptides were purchase from Genescript or as indicated. Chemicals were obtained from Sigma and Perkin Elmer. […] For all kinase activity assays, reactions were stopped by spotting onto P81 cation exchange chromatography paper (Whatman) squares. After extensive washes in water, phosphorylation of the substrate peptide bound to the P81 paper was measured by the Cherenkov method.

PKC = PKC activity assay; type: biochemical, rat; conditions: 5 µM peptide; 2 nM PKC (PKM fragment), 10 min, MARCKS peptide
Experimental: (§1) For all kinase activity assays, reactions were stopped by spotting onto P81 cation exchange chromatography paper (Whatman) squares. After extensive washes in water, phosphorylation of the substrate peptide bound to the P81 paper was measured by the Cherenkov method.
(§2) Reactions were performed essentially as described for CaMKII. However, for AMPK, 100 µM AMP was added to the reaction. For AMPK, PKC, and PKA, the reaction mix contained 1 mM EGTA instead of CaCl2 and CaM. Prior to activity assays, CaMKI (12.5 nM) and CaMKIV (80 nM) were phosphorylated by CaMKKα (1.25–4 nM) for 5 min at 30°C in Ca^2+/CaM containing buffer. Additionally, kinase amount, reaction time, and the substrate (obtained from different companies as indicated) was varied as follows: 2.5 nM CaMKIα, 3 min, syntide 2 (Genescript); 5 nM CaMKIV, 10 min, CaMK2g 345–358 peptide (Anaspec); 2.5 nM DAPK1 1–363, 3 min, MLC-derived peptide (Anaspec); 5 nM AMPK-α2β1γ1, 10 min, SAMStide (SignalChem); 5 nM PKA, 10 min, Kemptide (Genescript); 2 nM PKC, 10 min, MARCKS peptide (Anaspec). PKA and PKC were purified from bovine heart or rat brain, respectively. […] Other kinases were recombinant protein from mouse (CaMKI) or human (CaMKK, CaMKIV, DAPK1, AMPK), of the isoform and/or subunit composition indicated above.

PKA = molecular target: T2, PKA (Bos taurus, UniProt P00517); assay: PKA activity assay; type: biochemical, bovine; conditions: 5 µM peptide; 5 nM PKA catalytic subunits, 10 min, Kemptide
T2 construct: PKA and PKC were purified from bovine heart or rat brain, respectively; purchased PhosphoSolutions; host or cells: bovine heart
Experimental: as §1, §2

CaMKIα = molecular target: T3, CaMKIα (Mus musculus, UniProt Q91YS8); assay: CaMKI activity assay; type: biochemical; conditions: for IC50: 2.5 nM CaMKIα, 3 min, syntide 2, curve fit with Hill coefficient set as 1 (Fig. S5), read-out: IC50 of CaMKI inhibition; for effect on CaMKI activity at 5 µM peptide: 5 µM peptide (Figs. 5, 7B)
T3 construct: purchased SignalChem
Experimental: as §1, §2

AMPK-α2β1γ1 = molecular target: T4, AMPK-α2β1γ1 (Homo sapiens, UniProt P54619+P54646+Q9Y478); assay: AMPK activity assay; type: biochemical; conditions: 5 µM peptide; 5 nM AMPK, 10 min, SAMStide, 100 µM AMP
T4 construct: purchased SignalChem
Experimental: as §1, §2

CaMKIV = molecular target: T5, CaMKIV (Homo sapiens, UniProt Q16566); assay: CaMKIV activity assay; type: biochemical; conditions: 5 µM peptide; 5 nM CaMKIV, 10 min, CaMK2g 345–358 peptide
T5 construct: purchased SignalChem
Experimental: as §1, §2

DAPK1 1–363 = molecular target: T6, DAPK1 1–363 (Homo sapiens, UniProt P53355); assay: DAPK1 activity assay; type: biochemical; conditions: 5 µM peptide; 2.5 nM DAPK1 1–363, 3 min, MLC-derived peptide
T6 construct: 2.5 nM DAPK1 1–363, 3 min, MLC-derived peptide (Anaspec); purchased SignalChem
Experimental: as §1, §2

CaMKII = molecular target: T7, CaMKII (Rattus norvegicus, UniProt P11275); assay: CaMKII activity assay, T-site binding substrate AC3; type: biochemical; conditions: S- and T-site binding substrate AC3, competitive inhibition (Fig. S1); read-out: IC50 for inhibition of CaMKII activity towards AC3
T7 construct: made in house; host or cells: baculovirus/Sf9 (CaMKII); bacteria (CaM)
Experimental: Standard reactions (1 min at 30°C) were started by adding CaMKIIα (2.5 nM subunits, unless stated otherwise) to a mix of 50 mM PIPES pH 7.2, 0.1% BSA, 1 µM CaM, 1 mM CaCl2, 10 mM MgCl2, 100 µM [γ-^32P]ATP (∼1 Ci/mmole), 75 µM substrate peptide (syntide 2, or as indicated), and inhibitor peptide as indicated. Reactions with 0.1 nM CaMKII were done for 10 min.
as §1
Systematic further truncation of CN21 defined the minimal inhibitory region, CN19 (Fig. 1B). […] Thus, the peptide C-terminally truncated by 2 amino acids (now termed CN19) contains the minimal inhibitory region with full inhibitory potency. Phosphorylation of syntide 2 by CaMKII was inhibited by CN21, CN20 and CN19 with an IC50 of ∼100 nM (Fig. 1C). Syntide 2 is a “regular” S-site binding CaMKII substrate, and CN peptides inhibit its phosphorylation in a non-competitive manner. We additionally tested AC3, an S- and T-site binding substrate, as this T-site binding results in competitive inhibition by CN peptides, which also bind to the T-site. […]

[1] = class estimated from syntide 2 phosphorylation at 0.3 and 0.1 µM peptide, Ala scan peptides not N-acetylated / C-amidated, read-out: IC50 [μM] (Ala scan of CN19, Fig. 2)
[2] = values compared from Figs. 1, 4 and 7, read-out: CaMKII IC50 (Fig. S5 table and legend)
[3] = in vitro [γ-32P]ATP assay, substrate syntide 2, 30°C, approximate values (Figs. 1C, 4B, 6), read-out: IC50 of inhibition of CaMKII phosphorylation of syntide 2

T4 sequence (P54646 whole entry): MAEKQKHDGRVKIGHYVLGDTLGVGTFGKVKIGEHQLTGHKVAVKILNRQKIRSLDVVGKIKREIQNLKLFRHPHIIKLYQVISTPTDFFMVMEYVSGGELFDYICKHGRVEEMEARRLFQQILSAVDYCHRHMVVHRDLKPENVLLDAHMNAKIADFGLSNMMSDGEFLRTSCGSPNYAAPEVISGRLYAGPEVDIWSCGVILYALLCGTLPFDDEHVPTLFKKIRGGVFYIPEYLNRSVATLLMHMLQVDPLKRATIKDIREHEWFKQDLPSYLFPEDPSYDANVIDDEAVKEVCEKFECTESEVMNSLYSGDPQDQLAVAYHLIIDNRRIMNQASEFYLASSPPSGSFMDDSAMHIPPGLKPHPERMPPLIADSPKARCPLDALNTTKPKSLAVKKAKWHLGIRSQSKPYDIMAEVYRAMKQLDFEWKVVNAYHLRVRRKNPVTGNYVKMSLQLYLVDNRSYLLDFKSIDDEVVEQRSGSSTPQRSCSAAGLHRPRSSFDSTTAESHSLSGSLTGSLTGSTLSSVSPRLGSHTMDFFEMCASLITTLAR
T4 sequence (Q9Y478 whole entry partner): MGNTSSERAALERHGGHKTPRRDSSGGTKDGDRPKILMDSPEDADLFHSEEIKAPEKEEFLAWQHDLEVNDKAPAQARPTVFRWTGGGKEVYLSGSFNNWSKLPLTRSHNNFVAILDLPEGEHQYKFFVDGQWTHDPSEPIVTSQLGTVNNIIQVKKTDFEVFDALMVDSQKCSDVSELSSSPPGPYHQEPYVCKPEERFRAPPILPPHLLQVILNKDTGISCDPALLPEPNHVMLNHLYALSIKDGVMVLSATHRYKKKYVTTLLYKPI
T4 sequence (P54619 whole entry partner): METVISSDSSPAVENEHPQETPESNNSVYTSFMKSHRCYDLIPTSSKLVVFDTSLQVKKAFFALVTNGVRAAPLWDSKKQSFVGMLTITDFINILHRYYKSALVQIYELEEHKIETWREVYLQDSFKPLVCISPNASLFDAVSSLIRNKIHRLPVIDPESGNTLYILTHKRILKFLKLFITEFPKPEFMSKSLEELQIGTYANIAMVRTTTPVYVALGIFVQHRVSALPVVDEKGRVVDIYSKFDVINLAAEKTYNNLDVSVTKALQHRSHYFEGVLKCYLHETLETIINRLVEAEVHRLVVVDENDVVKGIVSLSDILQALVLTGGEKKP

KAPPKLGQIGRSKRVVIED [R2A]
IC50 (CaMKIIα; [1]): < 0.3 µM

KRPAKLGQIGRSKRVVIED [P4A]
IC50 (CaMKIIα; [1]): > 0.3 µM

Ac-KRAPKLGQIGRQKAVDIED-NH2 [CN19o]
effect on PKC activity at 5 µM (PKC): did not significantly affect | effect on PKA activity at 5 µM (PKA): did not significantly affect | fold increase of selectivity for CaMKII vs CaMKI compared to CN19 (CaMKIα): > 250 fold | IC50 (CaMKIα): 38000 nM | effect on CaMKI activity at 5 µM peptide (CaMKIα): did not significantly affect | CaMKII selectivity (Fig. S5 table) (CaMKIα; ratio CaMKI IC50 / CaMKII IC50): > 100,000 x | selectivity for CaMKII vs CaMKI (CaMKIα; ratio CaMKI IC50 / CaMKII IC50): ~100,000 fold | CaMKII activity remaining at 5 nM peptide (CaMKIIα): blocked CaMKII activity almost completely | IC50 (CaMKIIα; CaMKII reduced to 0.1 nM, 10 min reaction, IC50 dependent on CaMKII concentration (tight binding inhibitor), read-out: IC50 for CaMKII inhibition by CN19o (Fig. 7A)): < 0.0004 µM | effect of rational mutation in CN19a2v / CN19o on CaMKII inhibition (Fig. 6) (CaMKIIα): increased potency even further | fold greater potency of CaMKII inhibition compared to CN19 (CaMKIIα): > 250 fold | IC50 (CaMKIIα; [2]): 0.0004 µM | effect on AMPK activity at 5 µM (AMPK-α2β1γ1): did not significantly affect | effect on CaMKIV activity at 5 µM (CaMKIV): did not significantly affect | effect on DAPK1 activity at 5 µM (DAPK1 1–363): did not significantly affect

KRPPKLGQAGRSKRVVIED [I9A]
IC50 (CaMKIIα; [1]): > 0.3 µM

H-KRPPKLGAIGRSKRVVIED-OH [Q8A]
IC50 (CaMKIIα; [1]): ~0.1 µM

KRPPKLGQIGASKRVVIED [R11A]
fold reduction of potency of CaMKII inhibition compared to CN19 (Ala scan) (CaMKIIα): more than 3 fold | IC50 (CaMKIIα; [1]): > 0.3 µM

KRPPKLGQIGRSARVVIED [K13A]
IC50 (CaMKIIα; [1]): < 0.1 µM | effect of individual mutation of CN19 on potency of CaMKII inhibition (CaMKIIα; syntide 2): significantly increased potency

KRPPKLGQIGRSKAVVIED [R14A]
IC50 (CaMKIIα; [1]): < 0.1 µM | effect of individual mutation of CN19 on potency of CaMKII inhibition (CaMKIIα; syntide 2): significantly increased potency

KRPPKLGQIGRSKRVVAED [I17A]
IC50 (CaMKIIα; [1]): < 0.3 µM

KRPPKLAQIGRSKRVVIED [G7A]
IC50 (CaMKIIα; [1]): < 0.3 µM

H-KRPPKLGQIGRSKRVAIED-OH [V16A]
IC50 (CaMKIIα; [1]): ~0.1 µM

Ac-KRPPKLGQIGRSKRVVIED-NH2 [CN19]
IC50 (CaMKIα): 36000 nM | effect on CaMKI activity at 5 µM peptide (CaMKIα): did not significantly inhibit | selectivity for CaMKII vs CaMKI (CaMKIα; ratio CaMKI IC50 / CaMKII IC50): ~360 fold | IC50 (CaMKIIα; [2]): 0.1 µM | IC50 (CaMKII): ~1000 nM

KRPPKLGQIARSKRVVIED [G10A]
IC50 (CaMKIIα; [1]): > 0.3 µM

Ac-KRPPKLGQIGRSKRVVIEDD-NH2 [CN20]
effect of CN21 truncation on CaMKII inhibition (Fig. 1B) (CaMKIIα; CaMKII 20 nM, 40 µM syntide 2): not different between each other | IC50 (CaMKIIα; [3]): ~0.1 µM

KRPPKLGQIGRSKRVVIEA [D19A]
IC50 (CaMKIIα; [1]): < 0.3 µM

KRPPKLGQIGRSKRAVIED [V15A]
IC50 (CaMKIIα; [1]): < 0.3 µM

Ac-KRPPKLGQIGRSKRVVIEDDR-NH2 [CN21, reference compound]
effect on CaMKI activity at 5 µM peptide (CaMKIα): did not significantly inhibit | IC50 (CaMKIIα): ~0.1 µM | IC50 (CaMKII): ~1000 nM

KRPPKLGQIGRAKRVVIED [S12A]
fold reduction of potency of CaMKII inhibition compared to CN19 (Ala scan) (CaMKIIα): more than 3 fold | IC50 (CaMKIIα; [1]): > 0.3 µM

Ac-KRAPKLGQIGRVKAVVIED-NH2 [CN19a2v]
fold greater potency of CaMKI inhibition compared to CN19 (CaMKIα): ~2 fold | fold increase of selectivity for CaMKII vs CaMKI compared to CN19 (CaMKIα): ~2.5 fold | IC50 (CaMKIα): 18000 nM | effect on CaMKI activity at 5 µM peptide (CaMKIα): did not inhibit | CaMKI activity at 20 µM peptide (CaMKIα; 20 µM peptide, remaining activity (Fig. 5B)): ~60% | selectivity for CaMKII vs CaMKI (CaMKIα; ratio CaMKI IC50 / CaMKII IC50): ~900 fold | CaMKII activity remaining at 5 nM peptide (CaMKIIα): ~75% | potency of CN19 combination mutants (Fig. 4) (CaMKIIα; 20 nM peptide, syntide 2): without loss of its potency; also recorded: significantly stronger compared to CN19a3 with additional S12V mutation (CN19a3v) | effect of further mutation in CN19a2 on CaMKII inhibition (Figs. S3B, S4B) (CaMKIIα; compared with CN19a2): retained potency of CaMKII inhibition | fold greater potency of CaMKII inhibition compared to CN19 (CaMKIIα): ~5 fold | IC50 (CaMKIIα; [2]): 0.02 µM

KRAPKLGQIGRSKRVVIED [P3A]
IC50 (CaMKIIα; [1]): < 0.1 µM | effect of individual mutation of CN19 on potency of CaMKII inhibition (CaMKIIα; syntide 2): significantly increased potency

KRPPKLGQIGRSKRVVIAD [E18A]
IC50 (CaMKIIα; [1]): < 0.3 µM

KRPPKAGQIGRSKRVVIED [L6A]
IC50 (CaMKIIα; [1]): > 0.3 µM

Ac-KRAPKLGQIGRQKAVVIED-NH2 [CN19a2v V12Q]
effect of rational mutation in CN19a2v / CN19o on CaMKII inhibition (Fig. 6) (CaMKIIα): significantly increased potency | IC50 (CaMKIIα; [3]): ~0.001 µM

Ac-KRAPKLGQIGRVKAVDIED-NH2 [CN19a2v V16D]
effect of rational mutation in CN19a2v / CN19o on CaMKII inhibition (Fig. 6) (CaMKIIα): significantly increased potency | IC50 (CaMKIIα; [3]): ~0.001 µM

KRPPALGQIGRSKRVVIED [K5A]
IC50 (CaMKIIα; [1]): < 0.3 µM

ARPPKLGQIGRSKRVVIED [K1A]
IC50 (CaMKIIα; [1]): < 0.3 µM
